In ChEMBL document CHEMBL2163329, “Tuberculosis: the drug development pipeline at a glance” (Eur J Med Chem, 2012):
In brackets after ≈: the same amount, converted by molar mass.

How the values were obtained:
Assay type in all cases: functional
[1] = test system: Mycobacterium tuberculosis; assay: Antimycobacterial activity against quinolone-resistant, multidrug-resistant Mycobacterium tuberculosis
[2] = test system: Mycobacterium tuberculosis; assay: Antimycobacterial activity against drug-resistant Mycobacterium tuberculosis
[3] = test system: Mycobacterium tuberculosis; assay: Antimycobacterial activity against INH-resistant Mycobacterium tuberculosis
[4] = test system: Mycobacterium tuberculosis; assay: Antimycobacterial activity against RIF-resistant Mycobacterium tuberculosis
[5] = test system: Mycobacterium tuberculosis; assay: Antimycobacterial activity against EMB-resistant Mycobacterium tuberculosis

Row | Compound | MIC [2] | other results
1 | COc1c(N2CC3(CC3)[C@](C)(N)C2)c(F)cc2c(=O)c(C(=O)O)cn([C@@H]3C[C@@H]3F)c12 | – | MIC90 [1]: 0.5 µg/mL (≈ 1.19 µM)
2 | CC(=O)NC[C@H]1CN(c2ccc(N3CCSCC3)c(F)c2)C(=O)O1 [SUTEZOLID] | 0.03 µg/mL (≈ 0.0849 µM) | –
3 | O=[N+]([O-])c1cn2c(n1)OC[C@@H](OCc1ccc(OC(F)(F)F)cc1)C2 [PRETOMANID] | 0.015 µg/mL (≈ 0.0418 µM) | –
4 | COc1nc2ccc(Br)cc2cc1[C@@H](c1ccccc1)[C@@](O)(CCN(C)C)c1cccc2ccccc12 [BEDAQUILINE] | 0.003 µg/mL (≈ 0.0054 µM) | –
5 | CC(C)=CCC/C(C)=C/CNCCNC1C2CC3CC(C2)CC1C3 (stereo not drawn) [SQ109] | – | MIC [3]: 1.4 µM (≈ 0.463 µg/mL); MIC [4]: 0.7 µM (≈ 0.231 µg/mL); MIC [5]: 0.9 µM (≈ 0.298 µg/mL)
6 | C[C@]1(COc2ccc(N3CCC(Oc4ccc(OC(F)(F)F)cc4)CC3)cc2)Cn2cc([N+](=O)[O-])nc2O1 | 0.006 µg/mL (≈ 0.0112 µM) | –
